According to PubChem BioAssay (NCI):
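Protocol summary: plate cells (96-well), add compound at 5 concentrations, incubate 48 h, interpolate endpoints linearly. Here, GI50 denotes the concentration required for 50% inhibition of growth. The concentration for full growth arrest is given as TGI.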

Experiments:
Experiment in all cases: DTP human tumour cell line panel, 48 h
786-0 renal = test system: 786-0 renal
A498 renal = test system: A498 renal
A549 NSCLC = test system: A549 NSCLC
ACHN renal = test system: ACHN renal
BT-549 breast = test system: BT-549 breast
CAKI-1 renal = test system: CAKI-1 renal
CCRF-CEM leukemia = test system: CCRF-CEM leukemia
COLO 205 colon = test system: COLO 205 colon
DU-145 prostate = test system: DU-145 prostate
EKVX NSCLC = test system: EKVX NSCLC
HCC-2998 colon = test system: HCC-2998 colon
HCT-15 colon = test system: HCT-15 colon
HL-60(TB) leukemia = test system: HL-60(TB) leukemia
HOP-62 NSCLC = test system: HOP-62 NSCLC
HOP-92 NSCLC = test system: HOP-92 NSCLC
HS 578T breast = test system: HS 578T breast
HT29 colon = test system: HT29 colon
IGROV1 ovarian = test system: IGROV1 ovarian
K-562 leukemia = test system: K-562 leukemia
KM12 colon = test system: KM12 colon
LOX IMVI melanoma = test system: LOX IMVI melanoma
M14 melanoma = test system: M14 melanoma
MALME-3M melanoma = test system: MALME-3M melanoma
MCF7 breast = test system: MCF7 breast
MDA-MB-231 breast = test system: MDA-MB-231 breast
MDA-MB-435 = test system: MDA-MB-435
MOLT-4 leukemia = test system: MOLT-4 leukemia
NCI-H226 lung = test system: NCI-H226 lung
NCI-H23 lung = test system: NCI-H23 lung
NCI-H460 lung = test system: NCI-H460 lung
NCI-H522 lung = test system: NCI-H522 lung
NCI/ADR-RES ovarian = test system: NCI/ADR-RES ovarian
OVCAR-3 ovarian = test system: OVCAR-3 ovarian
OVCAR-4 ovarian = test system: OVCAR-4 ovarian
OVCAR-5 ovarian = test system: OVCAR-5 ovarian
OVCAR-8 ovarian = test system: OVCAR-8 ovarian
PC-3 prostate = test system: PC-3 prostate
RPMI-8226 leukemia = test system: RPMI-8226 leukemia
RXF 393 renal = test system: RXF 393 renal
SF-268 CNS = test system: SF-268 CNS
SF-295 CNS = test system: SF-295 CNS
SF-539 CNS = test system: SF-539 CNS
SK-MEL-2 melanoma = test system: SK-MEL-2 melanoma
SK-MEL-28 melanoma = test system: SK-MEL-28 melanoma
SK-MEL-5 melanoma = test system: SK-MEL-5 melanoma
SK-OV-3 ovarian = test system: SK-OV-3 ovarian
SN12C renal = test system: SN12C renal
SNB-19 CNS = test system: SNB-19 CNS
SNB-75 CNS = test system: SNB-75 CNS
SR leukemia = test system: SR leukemia
SW-620 colon = test system: SW-620 colon
T-47D breast = test system: T-47D breast
TK-10 renal = test system: TK-10 renal
U251 CNS = test system: U251 CNS
UACC-257 melanoma = test system: UACC-257 melanoma
UACC-62 melanoma = test system: UACC-62 melanoma
UO-31 renal = test system: UO-31 renal

Question: With `CCC1=C(c2ccc(OC)cc2)C(C)(C)Oc2c1ccc(O)c2CN1CCCC1` as the molecule, how does the GI50 (786-0 renal) read?
Answer: 4.02 µM

Question: What about the TGI (786-0 renal) of the same molecule?
Answer: 20.2 µM

Question: And the GI50 (A498 renal)?
Answer: 1.23 µM

Question: What about the TGI (A498 renal) of the same molecule?
Answer: 7.95 µM

Question: What about the GI50 (A549 NSCLC) of the same molecule?
Answer: 3.63 µM

Question: And the TGI (A549 NSCLC)?
Answer: 26.8 µM

Question: What about the GI50 (ACHN renal) of the same molecule?
Answer: 3.6 µM

Question: What about the TGI (ACHN renal) of the same molecule?
Answer: > 100 µM

Question: And the GI50 (BT-549 breast)?
Answer: 2.29 µM

Question: What about the TGI (BT-549 breast) of the same molecule?
Answer: 12.7 µM

Question: What about the GI50 (CAKI-1 renal) of the same molecule?
Answer: 2.95 µM

Question: And the TGI (CAKI-1 renal)?
Answer: 30.4 µM

Question: And the GI50 (CCRF-CEM leukemia)?
Answer: 1.86 µM

Question: And the TGI (CCRF-CEM leukemia)?
Answer: 5.38 µM

Question: What about the GI50 (COLO 205 colon) of the same molecule?
Answer: 14.9 µM

Question: What about the TGI (COLO 205 colon) of the same molecule?
Answer: 87.4 µM

Question: What about the GI50 (DU-145 prostate) of the same molecule?
Answer: 3.77 µM

Question: What about the TGI (DU-145 prostate) of the same molecule?
Answer: > 100 µM

Question: And the GI50 (EKVX NSCLC)?
Answer: 18.6 µM

Question: What about the TGI (EKVX NSCLC) of the same molecule?
Answer: > 100 µM

Question: What about the GI50 (HCC-2998 colon) of the same molecule?
Answer: 1.44 µM

Question: And the TGI (HCC-2998 colon)?
Answer: 2.88 µM

Question: What about the GI50 (HCT-15 colon) of the same molecule?
Answer: 1.91 µM

Question: What about the TGI (HCT-15 colon) of the same molecule?
Answer: 4.44 µM

Question: What about the GI50 (HL-60(TB) leukemia) of the same molecule?
Answer: 0.871 µM

Question: What about the TGI (HL-60(TB) leukemia) of the same molecule?
Answer: 3.12 µM

Question: And the GI50 (HOP-62 NSCLC)?
Answer: 1.99 µM

Question: And the TGI (HOP-62 NSCLC)?
Answer: 7.03 µM

Question: What about the GI50 (HOP-92 NSCLC) of the same molecule?
Answer: 1.23 µM

Question: What about the TGI (HOP-92 NSCLC) of the same molecule?
Answer: 3.98 µM

Question: And the GI50 (HS 578T breast)?
Answer: 3.44 µM

Question: And the TGI (HS 578T breast)?
Answer: 35.1 µM

Question: What about the GI50 (HT29 colon) of the same molecule?
Answer: 3.14 µM

Question: What about the TGI (HT29 colon) of the same molecule?
Answer: 8.94 µM

Question: What about the GI50 (IGROV1 ovarian) of the same molecule?
Answer: 3.84 µM

Question: And the TGI (IGROV1 ovarian)?
Answer: 23.9 µM

Question: And the GI50 (K-562 leukemia)?
Answer: 0.759 µM

Question: What about the TGI (K-562 leukemia) of the same molecule?
Answer: 3.1 µM

Question: What about the GI50 (KM12 colon) of the same molecule?
Answer: 1.91 µM

Question: What about the TGI (KM12 colon) of the same molecule?
Answer: 3.9 µM

Question: And the GI50 (LOX IMVI melanoma)?
Answer: 1.46 µM

Question: What about the TGI (LOX IMVI melanoma) of the same molecule?
Answer: 2.8 µM

Question: And the GI50 (M14 melanoma)?
Answer: 1.65 µM

Question: And the TGI (M14 melanoma)?
Answer: 3.39 µM

Question: What about the GI50 (MALME-3M melanoma) of the same molecule?
Answer: 2.05 µM

Question: What about the TGI (MALME-3M melanoma) of the same molecule?
Answer: 5.36 µM

Question: And the GI50 (MCF7 breast)?
Answer: 1.57 µM

Question: And the TGI (MCF7 breast)?
Answer: 3.2 µM

Question: What about the GI50 (MDA-MB-231 breast) of the same molecule?
Answer: 2.39 µM

Question: And the TGI (MDA-MB-231 breast)?
Answer: 4.97 µM

Question: And the GI50 (MDA-MB-435)?
Answer: 1.71 µM

Question: What about the TGI (MDA-MB-435) of the same molecule?
Answer: 4.03 µM

Question: And the GI50 (MOLT-4 leukemia)?
Answer: 2.18 µM

Question: And the TGI (MOLT-4 leukemia)?
Answer: 6.53 µM

Question: What about the GI50 (NCI-H226 lung) of the same molecule?
Answer: 2.45 µM

Question: And the TGI (NCI-H226 lung)?
Answer: 14.7 µM

Question: And the GI50 (NCI-H23 lung)?
Answer: 3.02 µM

Question: And the TGI (NCI-H23 lung)?
Answer: 21.6 µM

Question: What about the GI50 (NCI-H460 lung) of the same molecule?
Answer: 1.7 µM

Question: And the TGI (NCI-H460 lung)?
Answer: 3.59 µM

Question: What about the GI50 (NCI-H522 lung) of the same molecule?
Answer: 1.97 µM

Question: And the TGI (NCI-H522 lung)?
Answer: 3.96 µM

Question: And the GI50 (NCI/ADR-RES ovarian)?
Answer: 3.05 µM

Question: And the TGI (NCI/ADR-RES ovarian)?
Answer: 16 µM

Question: And the GI50 (OVCAR-3 ovarian)?
Answer: 4.13 µM

Question: And the TGI (OVCAR-3 ovarian)?
Answer: 36.2 µM

Question: And the GI50 (OVCAR-4 ovarian)?
Answer: 2.16 µM

Question: What about the TGI (OVCAR-4 ovarian) of the same molecule?
Answer: 29 µM

Question: And the GI50 (OVCAR-5 ovarian)?
Answer: 4.1 µM

Question: And the TGI (OVCAR-5 ovarian)?
Answer: 29.4 µM

Question: And the GI50 (OVCAR-8 ovarian)?
Answer: 2.11 µM

Question: And the TGI (OVCAR-8 ovarian)?
Answer: 4.94 µM

Question: What about the GI50 (PC-3 prostate) of the same molecule?
Answer: 2.58 µM

Question: And the TGI (PC-3 prostate)?
Answer: 29.3 µM

Question: What about the GI50 (RPMI-8226 leukemia) of the same molecule?
Answer: 0.721 µM

Question: What about the TGI (RPMI-8226 leukemia) of the same molecule?
Answer: 2.45 µM

Question: And the GI50 (RXF 393 renal)?
Answer: 1.24 µM

Question: And the TGI (RXF 393 renal)?
Answer: 3.87 µM

Question: And the GI50 (SF-268 CNS)?
Answer: 8.8 µM

Question: What about the TGI (SF-268 CNS) of the same molecule?
Answer: > 100 µM

Question: What about the GI50 (SF-295 CNS) of the same molecule?
Answer: 2.33 µM

Question: What about the TGI (SF-295 CNS) of the same molecule?
Answer: 6.01 µM

Question: What about the GI50 (SF-539 CNS) of the same molecule?
Answer: 3.05 µM

Question: What about the TGI (SF-539 CNS) of the same molecule?
Answer: 17.2 µM

Question: What about the GI50 (SK-MEL-2 melanoma) of the same molecule?
Answer: 1.98 µM

Question: And the TGI (SK-MEL-2 melanoma)?
Answer: 3.7 µM

Question: What about the GI50 (SK-MEL-28 melanoma) of the same molecule?
Answer: 1.7 µM

Question: What about the TGI (SK-MEL-28 melanoma) of the same molecule?
Answer: 3.32 µM

Question: What about the GI50 (SK-MEL-5 melanoma) of the same molecule?
Answer: 1.3 µM

Question: And the TGI (SK-MEL-5 melanoma)?
Answer: 2.57 µM

Question: And the GI50 (SK-OV-3 ovarian)?
Answer: 8.23 µM

Question: And the TGI (SK-OV-3 ovarian)?
Answer: > 100 µM

Question: And the GI50 (SN12C renal)?
Answer: 3.74 µM

Question: What about the TGI (SN12C renal) of the same molecule?
Answer: > 100 µM

Question: And the GI50 (SNB-19 CNS)?
Answer: 6.69 µM

Question: And the TGI (SNB-19 CNS)?
Answer: 56.9 µM

Question: What about the GI50 (SNB-75 CNS) of the same molecule?
Answer: 1.66 µM

Question: And the TGI (SNB-75 CNS)?
Answer: 87.4 µM

Question: And the GI50 (SR leukemia)?
Answer: 0.927 µM

Question: What about the TGI (SR leukemia) of the same molecule?
Answer: 3.63 µM

Question: And the GI50 (SW-620 colon)?
Answer: 1.71 µM

Question: And the TGI (SW-620 colon)?
Answer: 3.3 µM

Question: What about the GI50 (T-47D breast) of the same molecule?
Answer: 1.45 µM

Question: And the TGI (T-47D breast)?
Answer: 4.64 µM

Question: What about the GI50 (TK-10 renal) of the same molecule?
Answer: 5.26 µM

Question: What about the TGI (TK-10 renal) of the same molecule?
Answer: 31.3 µM

Question: What about the GI50 (U251 CNS) of the same molecule?
Answer: 1.48 µM

Question: And the TGI (U251 CNS)?
Answer: 3.04 µM

Question: And the GI50 (UACC-257 melanoma)?
Answer: 1.78 µM

Question: And the TGI (UACC-257 melanoma)?
Answer: 3.85 µM

Question: And the GI50 (UACC-62 melanoma)?
Answer: 1.81 µM

Question: And the TGI (UACC-62 melanoma)?
Answer: 3.86 µM

Question: And the GI50 (UO-31 renal)?
Answer: 2.19 µM

Question: What about the TGI (UO-31 renal) of the same molecule?
Answer: > 100 µM
